Results published in patent publication US12098153B2, “Small molecule inhibitors targeting Clostridioides difficile sporulation” (UNIVERSITY OF SOUTH FLORIDA, priority 2021, dated 2024).

What follows are molecules tested against T1, SpoVD (CdSpoVD, CDR20291_2544; soluble construct SpovD 38-583) (Clostridioides difficile, UniProt A0A9R0BM53) (assay: Bacillin (bocillin) inhibition assay, SpoVD). Conditions: not given.
T1 construct: pETGSTSUMO vector (NheI/XhoI), E. coli BL21(DE3) pLysS; fusion tag removed with ULP1
T1 sequence (A0A9R0BM53 entry or part of it): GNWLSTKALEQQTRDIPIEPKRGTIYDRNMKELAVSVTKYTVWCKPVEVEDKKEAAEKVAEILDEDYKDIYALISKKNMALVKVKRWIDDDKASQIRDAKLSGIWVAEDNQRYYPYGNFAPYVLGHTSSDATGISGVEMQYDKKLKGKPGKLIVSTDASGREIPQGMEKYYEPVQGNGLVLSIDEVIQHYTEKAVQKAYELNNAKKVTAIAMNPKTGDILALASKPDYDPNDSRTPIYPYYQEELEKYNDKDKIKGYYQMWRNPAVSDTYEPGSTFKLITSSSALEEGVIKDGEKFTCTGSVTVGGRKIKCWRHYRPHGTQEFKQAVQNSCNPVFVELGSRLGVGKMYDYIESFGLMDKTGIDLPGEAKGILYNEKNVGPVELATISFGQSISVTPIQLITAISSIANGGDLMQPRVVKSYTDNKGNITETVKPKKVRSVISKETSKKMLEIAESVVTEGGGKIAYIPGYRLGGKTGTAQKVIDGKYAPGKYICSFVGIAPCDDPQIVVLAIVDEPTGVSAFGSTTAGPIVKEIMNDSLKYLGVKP
Assay type: biochemical
Description: FIG. 2 is a table of IC50 values of select $-lactam antibiotics against SpoVD, their percentage inhibition of sporulation, and the concentration at which they were tested (½ MIC).
FIGS. 4A-4F show chemical structures of DPO sporulation inhibitors, their biochemical inhibition against SpoVD and their in vitro sporulation inhibition, wherein * indicates >50%, ** indicates >90%, and ***>95%.
(§1) Reactions were performed in a 96-well polystyrene plate with a final volume of 60 μl at 37° C. in 1× tris-buffered saline (20 mM Tris, 150 mM NaCl). […] Protein was then diluted and added to the well for a final concentration of 1 μM and incubated for 15 minutes at 37° C. 1 μL of bocillin (BOCILLIN™ FL Penicillin, Sodium Salt, Thermo Fisher Scientific) was added to each well for a final concentration of 20 μM, and incubated for 10 minutes at 37° C. Reactions were killed with 10 μL of 6×SDS loading buffer and pooled or directly loaded onto a 15-well Novex Wedgewell 8% Tris-Glycine Gels and ran at 175 V for ˜1 hour. Gels were then imaged (Biorad) for 6 seconds with the fluorescein blot filter setting and analyzed using ImageJ. All values were normalized to background intensity and divided by the average of three control intensities (no inhibitor) for % inhibition value. Assays were performed in duplicate or triplicate and IC50 values were calculated using a 3-parameter nonlinear regression.
(§2) The coding sequence corresponding to the soluble constructs of CDR20291_1067 (PBP3), CDR20291_0985 (PBP2) and CDR20291_2544 (CdSpoVD) were amplified from C. difficile R20291 genomic DNA The expression vector was modified from pETGST, in which the thrombin cleavage site was replaced by TEV (named pETGSTTEV) or ULP1 (named pETGSTSUMO) cleavage site. The vector was digested and the PCR fragments for each protein was inserted into the multi-clone site accordingly. SpovD 38-583 inserted into the NheI/XhoI site of the pETGSTSUMO vector. Cloned vector was then transformed into BL21(DE3) pLysS Escherichia coli (E. coli). Standard overnight cultures were grown in LB media containing chloramphenicol and kanamycin and used to inoculate 1 L LB cultures.
(§3) Cultures were grown until the optical density (OD600) reached ˜0.7. Protein expression was then induced with 0.5 mM isopropyl-β-d-thiogalactopyranoside (IPTG) overnight at 20° C. Cells were harvested via centrifugation at 4000×g for 10 minutes at 4° C. The cell pellet was suspended with a solution of 20 mM Tris pH 8.0, 200 mM NaCl, 20 mM imidazole, and one dissolved Thermo Scientific™ Pierce Protease Inhibitor Tablets. Cells were lysed with a sonicator using a 10 second sonication/15 second rest cycle for 15 minutes. Cell lysate was centrifuged at 45,000×g for 35 minutes and supernatant was loaded onto a HisTrap affinity column (GE Healthcare). A linear gradient of buffer B (20 mM Tris pH 8.0, 300 mM NaCl, 500 mM imidazole, and 10% glycerol) was applied to elute the recombinant protein which usually occurred at 30% buffer B. These fractions were pooled and buffer exchanged three times into protease buffer (20 mM Tris pH 8.0, 10% glycerol) using an Amicon Ultra centrifugal filter (Sigma-Aldrich). Purified His6-tagged TEV protease was added to all proteins at a 1:20 ratio except for CdSpoVD and incubated overnight at 4° C. Pure His6-tagged ULP1 protease was added to CdSpoVD at 1:20 ratio and incubated overnight at 4° C. The digested protein was re-loaded onto the HisTrap affinity column. Flowthrough was collected, concentrated, and loaded to a HiLoad 16/60 Superdex 75 size exclusion column (GE Healthcare) where it ran at a flow rate of 0.5 ml/min. Peak fractions were combined and purity assessed (>95%) with gel-electrophoresis. The identity of each enzyme was independently characterized with gel-electrophoresis, native-mass spectrometry, bocillin or nitrocefin binding, and/or X-ray crystallography.
Work on `CC1(C)S[C@@H]2[C@H](NC(=O)[C@H](N)c3ccccc3)C(=O)N2[C@H]1C(=O)O` [Ampicillin] yielded an IC50 of 2.54 µM.
For `C[C@H]1[C@H](NC(=O)/C(=N\OC(C)(C)C(=O)O)c2csc(N)n2)C(=O)N1S(=O)(=O)O` [Aztreonam], the IC50 was 1.36 µM.
With `CC(=O)OCC1=C(C(=O)O)N2C(=O)[C@@H](NC(=O)Cc3cccs3)[C@H]2SC1` [Cefalothin] the IC50 was 0.27 µM.
Work on `CC(C)(O/N=C(\C(=O)N[C@@H]1C(=O)N2C(C(=O)[O-])=C(C[n+]3ccccc3)CS[C@H]12)c1csc(N)n1)C(=O)O` [Ceftazidime] yielded an IC50 of 2.47 µM.

Same assay, conditions: FIG. 2; 1 μM protein, 15 min preincubation at 37° C., 20 μM bocillin; read-out: SpoVD IC50
Molecule `NC(=O)[C@@H]1CC[C@@H]2CN1C(=O)N2OS(=O)(=O)O` [Avibactam] has an IC50 of 165 µM.
`CO/N=C(\C(=O)N[C@@H]1C(=O)N2C(C(=O)O)=C(COC(C)=O)CS[C@H]12)c1csc(N)n1` [Cefotaxime] was tested, and the IC50 was 7.83 µM.
Work on `CO[C@@]1(NC(=O)Cc2cccs2)C(=O)N2C(C(=O)O)=C(COC(N)=O)CS[C@@H]21` [Cefoxitin] yielded an IC50 of 0.94 µM.
With `Nc1nc(/C(=N/O)C(=O)N[C@@H]2C(=O)N3C(C(=O)O)=C(/C=C4\CCN([C@@H]5CCNC5)C4=O)CS[C@H]23)ns1` [Ceftobiprole] the IC50 was 62.5 µM.
`Cc1onc(-c2ccccc2Cl)c1C(=O)N[C@@H]1C(=O)N2[C@@H]1SC(C)(C)[C@@H]2C(=O)O` [Cloxacillin] gave an IC50 of 6.12 µM.
`O=C(Nc1ccccc1)[C@@H]1CC[C@@H]2CN1C(=O)N2OS(=O)(=O)O` [Spo6] was tested, and the IC50 was 103 µM.
With `O=C(NCc1ccccc1)[C@@H]1CC[C@@H]2CN1C(=O)N2OS(=O)(=O)O` [Spo7] the IC50 was 53.1 µM.
`O=C(CNC(=O)[C@@H]1CC[C@@H]2CN1C(=O)N2OS(=O)(=O)O)c1ccccc1` [Spo8] was tested, and the IC50 was 63.8 µM.

Same assay, conditions: FIGS. 4A-4F; 1 μM protein, 15 min preincubation at 37° C., 20 μM bocillin; read-out: SpoVD IC50
Work on `O=C(Nc1ccccc1)[C@H](NC(=O)[C@@H]1CC[C@@H]2CN1C(=O)N2OS(=O)(=O)O)c1ccccc1` [Spo9] yielded an IC50 of 13 µM.
Work on `O=C(Nc1ccccc1)[C@@H](Cc1ccccc1)NC(=O)[C@@H]1CC[C@@H]2CN1C(=O)N2OS(=O)(=O)O` [Spo10] yielded an IC50 of 3.92 µM.

These molecules were tested against T2, PBP3 (CDR20291_1067; soluble construct) (Clostridioides difficile, UniProt A0A9R0CE13) (assay: Bacillin (bocillin) inhibition assay, PBP3). Conditions: FIGS. 6A-6F; 1 μM protein, 15 min preincubation at 37° C., 20 μM bocillin.
T2 construct: modified pETGST vector with TEV site, E. coli BL21(DE3) pLysS; tag removed with TEV
T2 sequence (A0A9R0CE13 entry or part of it): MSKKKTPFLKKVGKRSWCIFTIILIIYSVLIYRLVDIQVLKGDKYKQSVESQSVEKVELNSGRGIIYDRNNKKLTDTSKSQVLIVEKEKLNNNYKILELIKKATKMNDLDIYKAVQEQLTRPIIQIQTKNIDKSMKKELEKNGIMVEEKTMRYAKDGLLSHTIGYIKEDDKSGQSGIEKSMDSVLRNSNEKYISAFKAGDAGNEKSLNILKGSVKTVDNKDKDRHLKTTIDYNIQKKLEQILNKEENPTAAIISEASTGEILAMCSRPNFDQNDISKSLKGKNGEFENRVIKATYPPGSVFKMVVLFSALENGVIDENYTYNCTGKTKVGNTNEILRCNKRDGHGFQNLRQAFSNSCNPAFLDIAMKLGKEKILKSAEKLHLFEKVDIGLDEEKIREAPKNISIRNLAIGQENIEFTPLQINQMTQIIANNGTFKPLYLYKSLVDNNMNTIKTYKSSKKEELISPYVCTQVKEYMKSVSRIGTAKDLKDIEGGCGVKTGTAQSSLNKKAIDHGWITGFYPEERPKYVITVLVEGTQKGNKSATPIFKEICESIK
Assay type: biochemical
Description: FIGS. 6A-6F show the crystal structure of PBP3 and the chemical structures of DBO sporulation inhibitors, wherein * indicates >50%, ** indicates >90%, and ***>95%.
as §1, §2
as §3, with “The identity of each enzyme was independently characterized with gel-electrophoresis, native-mass spectrometry, bocillin or nitrocefin binding, and/or X-ray crystallography.” left out
Work on `NC(=O)[C@@H]1CC[C@@H]2CN1C(=O)N2OS(=O)(=O)O` [Avibactam] yielded an IC50 of 5.38 µM.
`O=C(Nc1ccccc1)[C@@H]1CC[C@@H]2CN1C(=O)N2OS(=O)(=O)O` [Spo6] showed an IC50 of 2.01 µM.
With `O=C(Nc1ccccc1)[C@H](NC(=O)[C@@H]1CC[C@@H]2CN1C(=O)N2OS(=O)(=O)O)c1ccccc1` [Spo9] the IC50 was 4.86 µM.
For `O=C(Nc1cccc2ccccc12)[C@@H]1CC[C@@H]2CN1C(=O)N2OS(=O)(=O)O` [Spo11], the IC50 was 2.24 µM.
`O=C(Nc1ccc(-n2cccn2)cc1)[C@@H]1CC[C@@H]2CN1C(=O)N2OS(=O)(=O)O` [Spo12] was tested, and the IC50 was 0.69 µM.
